Test results: patent US6528516B1, “Methods for reducing intraocular pressure using A3 adenosine receptor antagonists” (Trustees of the University of Pennsylvania, The Center for …, priority 1998, dated 2003)
Entries after “also recorded” stand apart in the source; their conditions may differ.

Tests used:
[1] = system: bovine pigmented ciliary epithelial (PE) cells; assay: Cell volume (shrinkage) of PE cells in isoosmotic suspension, Coulter Counter; format: cell-based; conditions: for effect of agent on shrinkage in the presence of ATP / shrinkage by agent in the presence or absence of ATP: 10 μM agent; for shrinkage by agent in the presence or absence of ATP: with or without 100 μM ATP; for effect of estradiol on shrinkage produced by ATP and tamoxifen: 100 nM estradiol; for effect of estradiol on cell volume in the absence of tamoxifen: 100 nM, FIG. 16B; for effect of PKC modulator on cell volume in the presence of ATP: 0.3 μM staurosporine, 250 μM DiC8
human A3 receptor = target: T1, human A3 receptor (Homo sapiens, UniProt P0DMS8); assay: Radioligand binding, [125I]AB-MECA, HEK-293 cell membranes; set-up: host or cells: HEK-293; conditions: read-out: Ki(hA3)
T1 sequence (P0DMS8 1-318): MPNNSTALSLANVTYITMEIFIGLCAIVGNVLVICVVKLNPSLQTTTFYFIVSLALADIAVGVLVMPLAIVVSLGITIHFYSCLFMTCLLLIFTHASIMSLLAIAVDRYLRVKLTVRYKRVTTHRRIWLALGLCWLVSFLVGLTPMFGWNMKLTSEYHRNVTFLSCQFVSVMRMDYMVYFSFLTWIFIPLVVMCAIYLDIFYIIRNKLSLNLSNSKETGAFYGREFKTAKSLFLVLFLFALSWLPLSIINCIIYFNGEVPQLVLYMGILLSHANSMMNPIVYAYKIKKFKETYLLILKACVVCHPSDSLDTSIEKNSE
Experimental: Natl. Acad. Sci. […] Natl. Acad. Sci. U.S.A. 89:7432-7436, 1992) was performed as described at 4° C. (Olah et al., Mol. Pharmacol. 45:978-982, 1994). The assay medium consisted of a buffer containing 10 mM Mg^2+, 50 mM Tris, 3 units/mL adenosine deaminase, and 1 mM EDTA, at pH 8.0 (4° C.). […] Incubations were terminated by rapid filtration over Whatman GF/B filters, using a Brandell cell harvester (Brandell, Gaithersburg, MD). The tubes were rinsed three times with 3 mL buffer each. At least five different concentrations of competitor, spanning 3 orders of magnitude adjusted appropriately for the IC50 of each compound, were used. IC50 values, calculated with the nonlinear regression method implemented in the InPlot program (Graph-PAD, San Diego, Calif.), were converted to apparent Ki values using the Cheng-Prusoff equation (Cheng et al., Biochem.

[2] = system: HCE (human ciliary epithelial) cell line, NPE cells; assay: Cell volume (shrinkage) of NPE cells in isosmotic solution, Coulter Counter, 5 μM gramicidin; format: cell-based
Experimental: A 0.5-ml aliquot of the HCE cell suspension in DMEM was added to 20 ml of each test solution, which contained (in mM): 110.0 NaCl, 15.0HEPES [4-(2-hydroxyethyl)-1-piperazineethanesulfonic acid], 2.5 CaCl2, 1.2 MgCl2, 4.7 KCl, 1.2 KH2PO4, 30.0 NaHCO3, and 10.0 glucose, at a pH of 7.4 and osmolality of 298-305 mOsm. Parallel aliquots of cells were studied on the same day. One aliquot usually served as a control, and the others were exposed to different experimental conditions at the time of suspension. The same amount of solvent vehicle (dimethylformamide, DMSO or ethanol) was always added to the control and experimental aliquots. The sequence of studying the suspensions was varied to preclude systematic time-dependent artifacts (Civan et al., Exp. Eye Res. 54:181-191, 1992).
Cell volumes of isosmotic suspensions were measured with a Coulter Counter (model ZBI-Channelyzer II), using a 100-μm aperture (Civan et al., supra., 1994). As previously described (Wax et al., supra., 1993), the cell volume (vC) of the suspension was taken as the peak of the distribution function. Cell shrinkage was fit as a function of time (t) to a monoexponential function:
vC=v∞+(v0−v∞)−[e^−(t−t^0^)/τ] {1}
where v∞ is the steady-state cell volume, v0 is the cell volume at the first point (t0) of the time course to be fit, and τ is the time constant of the shrinkage. For purposes of data reduction, the data were normalized to the first time point, taken to be 100% isotonic volume. Fits were obtained by nonlinear least-squares regression analysis, permitting both v∞and τ to be variables.
In order to differentiate among these receptors, the experiments were repeated in the present study using a series of agonists and antagonists selective for these receptors. As we wished to identify the effects of these receptors specifically on Cl^− channels, 5 μM gramicidin D was included in all solutions to eliminate any potential contribution from K^+ channels. This ionophore readily partitions into plasma membranes to form a cation-selective pore, and is widely used for studying volume regulation (Hoffmann et al., in Interaction of Cell Volume and Cell Function, Lang et al., eds., Springer, Heidelberg, Germany, pp. 188-248, (ACEP Series 14), 1993)). Under these conditions, release of cell Cl^− becomes the rate-limiting factor in both hypo-(Civan et al., Exp. Eye Res. 54:181-191, 1992) and isoosmotic cell shrinkage (Carre et al., supra., 1997).

[3] = 100 μM ATP + 10 μM agent, FIG. 13A
[4] = 10 μM trifluoperazine alone, FIG. 14B
[5] = 100 μM ATP + 10 μM TMX + 10 μM trifluoperazine, FIG. 14A
[6] = 100 μM ATP + 10 μM agent, FIG. 14A
[7] = 100 μM ATP + 10 μM trifluoperazine, FIG. 14B
[8] = FIG. 2D, 100 nM Cl-IB-MECA, IB-MECA in parallel

Structure (SMILES): C[N+](C)(C)CCOC(N)=O [carbachol]
- effect of agent on shrinkage in the presence of ATP ([1]; 100 μM ATP, FIG. 13A): did trigger a prompt shrinkage; also recorded: enhanced shrinkage
- shrinkage by agent in the presence or absence of ATP [1]: nearly the same degree of shrinkage in the presence or absence of 100 μM ATP; also recorded: reduced cell volume on their own
- steady-state cell volume (v∞) [1, 3]: 94.2±0.4%
- time constant of the shrinkage (τ) [1, 3]: 5.6 ± 1.2 min

Structure (SMILES): NCCc1c[nH]cn1 [histamine]
- effect of agent on shrinkage in the presence of ATP ([1]; 100 μM ATP, FIG. 13A): did not enhance the volumetric response
- steady-state cell volume (v∞) [1, 3]: 97.4±0.5%
- time constant of the shrinkage (τ) [1, 3]: 21.0 ± 8.0 min

Structure (SMILES): C[C@]12CC[C@@H]3c4ccc(O)cc4CC[C@H]3[C@@H]1CC[C@H]2O [17α-estradiol]
- effect of estradiol on shrinkage produced by ATP and tamoxifen ([1]; 100 μM ATP, 10 μM tamoxifen): no significant effect
- effect of estradiol on cell volume in the absence of tamoxifen [1]: very small effects

Structure (SMILES): CN1CCN(CCCN2c3ccccc3Sc3ccc(C(F)(F)F)cc32)CC1 [trifluoperazine]
- shrinkage by agent in the presence or absence of ATP [1]: the same, whether or not ATP was present; also recorded: reduced cell volume on their own
- steady-state cell volume (v∞) [1, 4]: 96.8±0.2%
- time constant of the shrinkage (τ) [1, 4]: 0.9 ± 0.6 min
- effect of trifluoperazine on shrinkage produced by ATP alone ([1]; 10 μM trifluoperazine, 100 μM ATP): enhanced the shrinkage produced by ATP alone
- effect of trifluoperazine on the response to ATP+TMX ([1]; 10 μM trifluoperazine, 100 μM ATP, 10 μM tamoxifen): reduced the response
- steady-state cell volume (v∞) [1, 5]: 95.7±0.4%
- time constant of the shrinkage (τ) [1, 5]: 3.9 ± 1.2 min
- steady-state cell volume (v∞) [1, 6]: 96.2±0.3%
- time constant of the shrinkage (τ) [1, 6]: 6.8 ± 1.4 min
- steady-state cell volume (v∞) [1, 7]: 96.7±0.3%
- time constant of the shrinkage (τ) [1, 7]: 0.5 ± 1.5 min

Structure (SMILES): CCCOC(=O)c1c(CCC)c(C(=O)SCCCF)c(CC)[n+](C)c1-c1ccccc1 [Compound 17, 1-Methyl-2-ethyl-4-propyl-3-(3-fluoropropylsulfanylcarbonyl)-5-propyloxycarbonyl-6-phenylpyridinium Iodide]
- Ki (human A3 receptor): 465 nM

Structure (SMILES): CCC[n+]1c(CC)c(C(=O)SCC)c(CC)c(C(=O)OCC)c1-c1ccccc1 [Compound 13, 1-Propyl-2,4-diethyl-3-(ethylsulfanylcarbonyl)-5-ethyloxycarbonyl-6-phenylpyridinium Iodide]
- Ki (human A3 receptor): 1350 nM

Structure (SMILES): CN[C@@H]1C[C@H]2O[C@@](C)([C@@H]1OC)n1c3ccccc3c3c4c(c5c6ccccc6n2c5c31)C(=O)NC4 [staurosporine]
- effect of PKC modulator on cell volume in the presence of ATP ([1]; 100 μM ATP): small, insignificant shrinkage

Structure (SMILES): CCCCc1c(C(=O)SCC)c(CC)c(C(=O)OCC)c(-c2ccccc2)[n+]1C [Compound 20, 1-Methyl-2-butyl-4-ethyl-3-(ethylsulfanylcarbonyl)-5-ethyloxycarbonyl-6-phenylpyridinium Iodide]
- Ki (human A3 receptor): 436 nM

Structure (SMILES): CCCOC(=O)c1c(CCSC(C)=O)c(C(=O)SCC)c(CC)[n+](C)c1-c1ccccc1 [Compound 18, 1-Methyl-2-ethyl-4-(2-acetylthioethyl)-3-(ethylsulfanylcarbonyl)-5-propyloxycarbonyl-6-phenylpyridinium Iodide]
- Ki (human A3 receptor): 538 nM

Structure (SMILES): CCOC(=O)c1c(CC)c(C(=O)SCC)c(C2CCC2)[n+](C)c1-c1ccccc1 [Compound 21, 1-Methyl-2-cyclobutyl-4-ethyl-3-(ethylsulfanylcarbonyl)-5-ethyloxycarbonyl-6-phenyl pyridinium Iodide]
- Ki (human A3 receptor): 1410 nM

Structure (SMILES): CCCCCCCC(=O)OCC(CO)OC(=O)CCCCCCC (stereo not shown) [DiC8]
- effect of PKC modulator on cell volume in the presence of ATP ([1]; 100 μM ATP): no significant effect

Structure (SMILES): C[C@]12CC[C@@H]3c4ccc(O)cc4CC[C@H]3[C@@H]1CC[C@@H]2O [17β-estradiol]
- effect of estradiol together with ATP on cell volume ([1]; 100 nM 17β-estradiol, 100 μM ATP): small and slow shrinkage
- effect of estradiol on shrinkage produced by ATP and tamoxifen ([1]; 100 μM ATP, 10 μM tamoxifen): reduced; also recorded: significantly inhibited
- effect of estradiol on cell volume in the absence of tamoxifen [1]: very small effects

Structure (SMILES): O=S(=O)(O)c1cc(N=C=S)ccc1C=Cc1ccc(N=C=S)cc1S(=O)(=O)O [DIDS, 4,4′-diisothiocyano-2,2′-disulfonic acid]
- effect of Cl− channel blocker on ATP, tamoxifen-activated shrinkage ([1]; DIDS 500 μM, NPPB 100 μM): inhibited the volume reduction; also recorded: reduced

Structure (SMILES): CCCOC(=O)c1c(CCC)c(C(=O)SCC)c(CCOCc2ccccc2)[n+](C)c1-c1ccccc1 [Compound 22, 1-Methyl-2-(2-benzyloxylethyl)-4-propyl-3-(ethylsulfanylcarbonyl)-5-propyloxycarbonyl-6-phenylpyridinium Iodide]
- Ki (human A3 receptor): 348 nM

Structure (SMILES): CCOC(=O)c1c(CCN2C(=O)c3ccccc3C2=O)c(C(=O)SCC)c(CC)[n+](C)c1-c1ccccc1 [Compound 19]
- Ki (human A3 receptor): 1250 nM

Structure (SMILES): CNC(=O)[C@H]1O[C@@H](n2cnc3c(NCc4cccc(I)c4)nc(Cl)nc32)[C@H](O)[C@@H]1O [Cl-IB-MECA]
- steady-state cell volume (V∞) [2, 8]: 97.9±0.2%
- time constant of the shrinkage (τ) [2, 8]: 2.5 ± 1.3 min

Structure (SMILES): CCSC(=O)c1c(CC)c(C(=O)OCCF)c(-c2ccccc2)[n+](C)c1CC [Compound 14]
- Ki (human A3 receptor): 364 nM

Structure (SMILES): CCNC(=O)[C@H]1O[C@@H](n2cnc3c(N)nc(NCCc4ccc(CCC(=O)O)cc4)nc32)[C@H](O)[C@@H]1O [CGS-21680, 2-[4-[(2-carboxyethyl)phenyl]ethylamino]-5′-N-ethylcarbamoyladenosine]
- effect of adenosine-receptor agonist on isoosmotic volume ([2]; 100 nM agonist): no detectable effect
- effect of adenosine-receptor agonist on isoosmotic volume ([2]; 3 μM agonist): triggered isoosmotic shrinkage

Structure (SMILES): CCCOC(=O)c1c(CC)c(C(=O)SCC)c(CC)[n+](C)c1-c1ccccc1 [Compound 15, 1-Methyl-2-ethyl-4-ethyl-3-(ethylsulfanylcarbonyl)-5-propyloxycarbonyl-6-phenylpyridinium Iodide]
- Ki (human A3 receptor): 483 nM

Structure (SMILES): CCOC(=O)c1c(CC)c(C(=O)SCC)c(CC)[n+](CC)c1-c1ccccc1 [Compound 12, 1-Ethyl-2,4-diethyl-3-(ethylsufanylcarbonyl)-5-ethyloxycarbonyl-6-phenylpyridinium Iodide]
- Ki (human A3 receptor): 577 nM

Structure (SMILES): OC[C@H]1O[C@@H](n2cnc3c(NC4CCCC4)ncnc32)[C@H](O)[C@@H]1O [CPA, N^6-cyclopentyladenosine]
- effect of adenosine-receptor agonist on isoosmotic volume ([2]; 30 nM agonist): no significant shrinkage
- effect of adenosine-receptor agonist on isoosmotic volume ([2]; 100 nM agonist): small slow effect of uncertain significance; also recorded: little effect
- effect of adenosine-receptor agonist on isoosmotic volume ([2]; 1 μM agonist): no significant shrinkage
- effect of adenosine-receptor agonist on isoosmotic volume ([2]; 3 μM agonist): no significant shrinkage; also recorded: none at all

Structure (SMILES): CCOC(=O)c1c(CC)c(C(=O)SCC)c(C)[n+](C)c1-c1ccccc1 [Compound 10, 1-Methyl-2-methyl-4-ethyl-3-(ethylsulfanylcarbonyl)-5-ethyloxycarbonyl-6-phenylpyridinium Iodide]
- Ki (human A3 receptor): 379 nM

Structure (SMILES): CCCOC(=O)c1c(CCC)c(C(=O)SCC)c(CC)[n+](C)c1-c1ccccc1 [Compound 16, 1-Methyl-2-ethyl-4-propyl-3-(ethylsulfanylcarbonyl)-5-propyloxycarbonyl-6-phenylpyridinium Iodide]
- Ki (human A3 receptor): 2020 nM
